The values below come from US20260355180A1, “COMPOSITIONS AND METHODS FOR SPLICEOSOME-TARGETED THERAPIES” (Institute for Cancer Research d/b/a The Research Institute …, priority 2022, published 2026).

One assay has as its system H82 SCLC cells. The experiment in a line: Antigen (HLA-ABC) and PD-L1 expression, H82. The assay is classed as cell-based. The note with it: 48 hours of 0.5 nM PlaB. From the text: (§1) FIG. 3A-3D: SF3B1 inhibition induces a potent IFN response and increases expression of IFN-regulated proteins. […] Mean±SEM, two-tailed unpaired Student's t test *p<0.05, **p<0.01, ***p<0.001, ****p<0.0001.
(§2) We also observed that SF3B1 inhibition triggers robust anti-tumor response and upregulates IFN-β, IFN-γ, and IFN-responsive genes by real-time reverse-transcription quantitative polymerase chain reaction (rRT-qPCR) in H446 and H82 cells (FIGS. 3A and 3B). […] These observations indicate that spliceosome inhibition is useful as a targeted therapy for SCLCs.

For another assay, the system named is ZBP1-KO RPPM631 cells. The experiment in a line: Viability of ZBP1-KO RPPM631 cells. It counts as cell-based, mouse. The note with it: PlaB. From the text: Next, we prepared ZBP1-KO RPPM631 cells to determine whether the necroptosis was ZBP-1 dependent.
The test system of assay [1] is MEF ΔZBP1 cells. The experiment in a line: A-RNA and Z-NA accumulation in MEF ΔZBP1. The assay is classed as cell-based, mouse. As to the method:
(§3) FIG. 5A-5E: SF3B1 perturbation upregulates A-RNA and Z-nucleic acids in MEFs. (FIG. 5A) 5 nM of PlaB induces A-RNA and Z-Nucleic acids in ΔZBP1 MEF cells. (FIG. 5B) Quantification of A-RNA and Z-Nucleic acids. […] Plots of signal intensity are mean±SEM, two-tailed unpaired Student's t test *p<0.05, ***p<0.001, ****p<0.0001. 18 hours of PlaB treatment for IF, WB and rescue experiments. IF: 5 nM PlaB, WB and rescue experiments: 2.5 nM PlaB.
(§4) Since induction of Z-nAs can result in ZBP1-dependent necroptosis, we analyzed induction of necroptosis in necroptotic competent MEFs using spliceosome inhibition. […] We also determined that MEFs ΔZBP1, WT, and Flag-ZBP1 cells treated with PlaB began dying within 24hours after treatment. With MEF Flag-ZBP1 cells showing only 20% survival after 24 hours (FIG. 16).

A further assay deals with MEF RA cells. The experiment in a line: pMLKL western blot / necroptosis, MEF RHIM-A mutant (RA). The assay is classed as cell-based, mouse. The note with it: 2.5 nM PlaB, 18 hours. The protocol:
as §3, §4

In the next assay the test system is H82 KO cells. The assay is described as follows: CytoToxicity of PlaB in TNFR1-, TRADD-, FADD-, CASP8-KO H82 cells (trypan blue). It counts as cell-based. The note with it: 2.5 nM PlaB, 18 hrs. An excerpt:
(§5) […]: CytoToxicity analysis of PlaB in TNFR1-KO and TRADD-KO H82 cells […] and H446 cells (FIG. 16B). CytoToxicity analysis of PlaB in FADD-KO and CASP8-KO H82 cells (FIG. 16C) and H446 cells (FIG. 16D). EV refers to cells treated with an empty vector.
(§6) Since RIPK1 mediated apoptosis can be triggered by TNF110, TNFR1 and TRADD-KO SCLC cell lines are generated herein for subsequent studies. Here, we utilize CRISPR-Cas9 KO to effectively knockout TNFR1 and TRADD in SCLC cells. To confirm depletion of TNFR1 and TRADD proteins, cell lysates are collected and western blot analysis is performed. The following experiments are performed using the TNFR1 and TRADD-KO SCLC cells generated above.
(§7) H82 and H446 WT and TNFR1 and TRADD-KO cells generated above are treated with DMSO or 2.5 nM PlaB for 18 hrs. Then, the cells are counted using 0.4% trypan blue solution assessing total viable cells and the percent of cell survived with the H82 and H446 WT cells is compared. (FIG. 15A-15B) This allows us to confirm whether TNF is partially or fully responsible for PlaB-mediated cell death in SCLC cell lines.
(§8) Additionally, we analyzed the role played by FADD and CAPS8 in rescuing H82 and H446 cells from PlaB induced toxicity. Using the methods described above for the generation of TNFR1 and TRADD-KO cells, H82 and H446 FADD-KO cells and H82 and H446 CASP8-KO cells were generated. These cells were then treated with DMSO or 2.5 nM PlaB for 18 hrs and compared to WT H82 and H446 cells. […] (FIG. 15C and FIG. 15D)

In assay [2] the test system is H446 SCLC cells. The experiment in a line: RIPK1 depletion rescue of PlaB cytotoxicity, H446. The assay is classed as cell-based, human. As to conditions: 18 hours of PlaB, RIPK1 depleted H446. The protocol: FIG. 2A) SCLC cell lines (H446 and H82) and immortalized fibroblasts (FC1010 and HS68) cell survival curves after 72 hours of PlaB treatment. FIG. 2B) RIPK1 depletion rescues H82 and H446 cell survival after 18 hours of PlaB treatment. FIG. 2C) Western blot showing RIPK1 protein depletion. Mean±SEM, Welch's t test *p<0.05, **p<0.01.
Cancer deregulates splicing^31,32, and we hypothesized that hyper-proliferative SCLCs are dependent on splicing machineries for increased tumorigenicity^90.

The next assay has as its system pTBK1 protein. The experiment in a line: Western blot of pTBK1. The assay is classed as cell-based. From the text: FIG. 7: Western Blot analysis showing pTBK1 protein depletion.
Based on the publications and our findings, TNF sensing can at least partially rescue spliceosome perturbation mediated cell death.

Assay [3] deals with H446 SCLC cells. The assay is described as follows: IFN response by rRT-qPCR, H446. It counts as cell-based, human. As to conditions: dose-dependent.
Source text: as §1, §2

The next assay relates to SCLC cell lines. The experiment in a line: Western blot of cleaved-PARP, pH2AX, ZBP1 and RIPK1 (FIG. 4C). The assay is classed as cell-based. The note with it: 48 hours of PlaB. From the text: FIG. 4A-4C: SF3B1 perturbation increases dsRNA and Z-nucleic acid levels in treated cells. […] (FIG. 4B) Quantification of A-RNA and Z-Nucleic acids. (FIG. 4C) Western blot showing induction of cleaved-PARP, pH2AX, and ZBP1, and the reduction of RIPK1 protein levels. Plots of signal intensity are mean±SEM, two-tailed unpaired Student's t test **p<0.01, ****p<0.0001.

For assay [4], the system named is MEF ΔZBP1 cells. The assay is described as follows: Survival of PlaB treated MEF ΔZBP1. The assay is classed as cell-based, mouse. As to the method: FIG. 16: Analysis of the effect of spliceosome inhibition on necroptosis in WT MEF cells. EV refers to cells treated with an empty vector.
as §4

For a further assay, the system named is H446 KO cells. The experiment in a line: CytoToxicity of PlaB in TNFR1-, TRADD-, FADD-, CASP8-KO H446 cells (trypan blue). The assay is classed as cell-based, human. The note with it: 2.5 nM PlaB, 18 hrs.
Source text: as §5, §6, §7, §8

Entries after “also recorded” stand apart in the source; their conditions may differ.

Turning to `CCC(O)C(C)C1OC1CC(C)C=CC=C(C)C1OC(=O)CC(O)CCC(C)(O)C(OC(C)=O)C=CC1C` (stereo not drawn) [PlaB, Pladienolide B], in the assay on H82 SCLC cells, the PD-L1 expression result is listed as “effectively upregulates” and the antigen expression result is “effectively upregulates”. Further, in the assay on ZBP1-KO RPPM631 cells, the viability result is reported as “only a minor decrease in viability”. Also, in the assay with MEF ΔZBP1 cells [1] (5 nM PlaB, 18 hours), the A-RNA induction entry is reported as “induces” and the Z-Nucleic acids induction entry is “induces”. The “A-RNA and Z-NA accumulation” value in the assay with MEF ΔZBP1 cells [1] (SF3B1 inhibition) is listed as “accumulation”. Further, the “pMLKL (necroptosis)” value in the assay on MEF RA cells (MEF RA) is recorded as “not triggered”. Besides, the PlaB-mediated necroptosis result in the assay on MEF RA cells (MEF RHIM-A mutant) was “avoid PlaB-mediated necroptosis”. The “rescue from PlaB toxicity by CASP8-KO” value in the assay on H82 KO cells (H82 CASP8-KO) was “effectively rescued”. Besides, the “rescue from PlaB toxicity by FADD-KO” value in the assay with H82 KO cells (H82 FADD-KO) is recorded as “effectively rescued”. The “rescue from PlaB toxicity by TNFR1-KO” value in the assay with H82 KO cells (H82 TNFR1-KO) is “effectively rescued”. Besides, in the assay with H82 KO cells (H82 TRADD-KO), the “rescue from PlaB toxicity by TRADD-KO” value is “effectively rescued”. Further, the “cell survival upon RIPK1 depletion” value in the assay on H446 SCLC cells [2] was “rescues”. Also, the pTBK1 protein entry in the assay with pTBK1 protein is on record as “dramatic reduction”. Also, the IFN response entry with H446 SCLC cells [3] is recorded as “induces potent IFN response”. In the assay on SCLC cell lines, the RIPK1 protein level entry was “dropped considerably”, the ZBP1 protein result is on record as “increased; also recorded: slight increase”, the cleaved-PARP protein result is “increased” and the pH2AX protein entry was “increased”. Moreover, the “time after treatment at which cells began dying” value in the assay on MEF ΔZBP1 cells [4] is at most 24 h. The “rescue from PlaB toxicity by CASP8-KO” value with H446 KO cells (H446 CASP8-KO) is “effectively rescued”. In the assay on H446 KO cells (H446 FADD-KO), the “rescue from PlaB toxicity by FADD-KO” value was “effectively rescued”. For the same compound, in the assay on H446 KO cells (H446 TNFR1-KO), the “rescue from PlaB toxicity by TNFR1-KO” value is listed as “effectively rescued”. For the same compound, the “rescue from PlaB toxicity by TRADD-KO” value with H446 KO cells (H446 TRADD-KO) is recorded as “effectively rescued”.
